From ChEMBL document CHEMBL1201862, “PubChem BioAssay data set” (2004) come the findings set out here.

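Growth conditions: 96-well plates. Treatment: test compound, 48 hours, 5 concentrations. Analysis: linear interpolation between bracketing concentrations; unreached endpoints set to highest concentration. GI50: concentration for 50% inhibition of growth.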 Active and inactive are the calls of the source. No stated cut-off is given here; in the data, active = GI50 up to about 1.1 µM and inactive = higher. A value given as a limit tells only on which side of the number the result lay.

Some test systems named below: 786-0; A498; COLO 205; EKVX; HCC 2998; MCF7; MDA-MB-231; MOLT-4; NCI-H460; NCI-H522; NCI/ADR-RES; OVCAR-3; PC-3; RXF 393; SF-268; SF-295; SN12C; SNB-19; SW-620; U-251.
Test in all cases: DTP human tumour cell line panel, 48 h

On to `C=CC(=O)N1C/C(=C\c2ccccc2)C(=O)/C(=C/c2ccccc2)C1`, for which the GI50 (commonly the concentration at which growth is held to half of that of the control) was 1.06 µM (active) in the experiment with 786-0; 2 µM (inactive) with A498; 1.83 µM (inactive) in the experiment with COLO 205; 3.47 µM (inactive) in the experiment with EKVX; 1.95 µM (inactive) in the experiment on HCC 2998; 0.5 µM (active) in the experiment with MCF7. In addition, the GI50 is 2 µM (inactive) with MDA-MB-231; 0.458 µM (active) in the experiment on MOLT-4; 1.89 µM (inactive) with NCI-H460; 1.24 µM (inactive) with NCI-H522; 1.93 µM (inactive) in the experiment with NCI/ADR-RES; 1.48 µM (inactive) in the experiment with OVCAR-3. Further, the GI50 with PC-3 was 1.69 µM (inactive); with RXF 393, 2.15 µM (inactive); with SF-268, 1.97 µM (inactive); in the experiment on SF-295, 2.1 µM (inactive); in the experiment with SN12C, 1.67 µM (inactive); in the experiment on SNB-19, 2.54 µM (inactive). Further, the GI50 in the experiment on SW-620 is 0.259 µM (active); in the experiment with U-251, 0.877 µM (active).
With `CC(=O)OCCN1c2ccccc2Sc2cnccc21`, the GI50 in the experiment with 786-0 was > 10 µM (inactive); with A498, > 10 µM (inactive); with COLO 205 it was > 10 µM (inactive); with EKVX it was 8.55 µM (inactive); with HCC 2998, > 10 µM (inactive); in the experiment on MCF7 it was > 10 µM (inactive). Also, the GI50 with MDA-MB-231, in the experiment with MOLT-4, in the experiment on NCI-H460, in the experiment with NCI-H522, in the experiment with NCI/ADR-RES and in the experiment on OVCAR-3 was > 10 µM (inactive) in each case. Besides, the GI50 with PC-3, with RXF 393, with SF-268, in the experiment on SF-295, in the experiment with SN12C and with SNB-19 was > 10 µM (inactive) in each case. Moreover, the GI50 in the experiment with SW-620 and with U-251 was > 10 µM (inactive) throughout.
On to `COC(=O)CCC1(O)C=CC(=O)C=C1`, for which the GI50 was 36.4 µM (inactive) in the experiment on 786-0; > 100 µM (inactive) in the experiment on A498; 17.6 µM (inactive) in the experiment with COLO 205; > 100 µM (inactive) in the experiment with EKVX; 63.5 µM (inactive) with HCC 2998; 38.3 µM (inactive) with MCF7. The GI50 in the experiment with MDA-MB-231 was > 100 µM (inactive); with MOLT-4, 37.7 µM (inactive); in the experiment on NCI-H460, 28.2 µM (inactive); with NCI-H522, 14.1 µM (inactive); in the experiment on NCI/ADR-RES, 31.3 µM (inactive); with OVCAR-3 it was 24.4 µM (inactive). The GI50 is > 100 µM (inactive) in the experiment on PC-3; 23.6 µM (inactive) in the experiment with RXF 393; 29.6 µM (inactive) in the experiment with SF-268; > 100 µM (inactive) in the experiment on SF-295; 57.1 µM (inactive) in the experiment on SN12C; 37.8 µM (inactive) in the experiment on SNB-19. Further, the figures for the GI50 in the experiment with SW-620 and in the experiment on U-251 were 29.8 µM (inactive) and 21.1 µM (inactive), respectively.
Regarding `COc1ccc2c(c1)-c1nc(=S)n(CCCN(C)C)c3ccc([N+](=O)[O-])c(c13)N2`, the GI50 was 0.279 µM (active) in the experiment on 786-0; 4.09 µM (inactive) in the experiment with A498; 0.656 µM (active) in the experiment on COLO 205; 0.805 µM (active) in the experiment on EKVX; 1.5 µM (inactive) with HCC 2998; 0.437 µM (active) with MCF7. The GI50 in the experiment on MDA-MB-231 was 0.687 µM (active); with MOLT-4, 0.141 µM (active); in the experiment on NCI-H460 it was 0.358 µM (active); with NCI-H522, 0.766 µM (active); with NCI/ADR-RES, 1.25 µM (inactive); with OVCAR-3 it was 1.59 µM (inactive). The GI50 is 0.771 µM (active) with PC-3; 0.471 µM (active) in the experiment with RXF 393; 0.617 µM (active) in the experiment on SF-268; 1.81 µM (inactive) in the experiment with SF-295; 0.582 µM (active) with SN12C; 0.8 µM (active) in the experiment on SNB-19. Moreover, the GI50 with SW-620 is 0.344 µM (active); in the experiment with U-251 it was 0.592 µM (active).
For the compound `CCOC(=O)c1c(N2CCOCC2)ncn(-c2cccc(Cl)c2)c1=O`, the GI50 is > 100 µM (inactive) in the experiment on 786-0; 0.159 µM (active) in the experiment with A498; > 100 µM (inactive) in the experiment with COLO 205; > 100 µM (inactive) in the experiment on EKVX; > 100 µM (inactive) in the experiment on HCC 2998; > 100 µM (inactive) in the experiment on MCF7. The GI50 with MDA-MB-231, in the experiment with MOLT-4, with NCI-H460, with NCI-H522, in the experiment with NCI/ADR-RES and in the experiment with OVCAR-3 was > 100 µM (inactive) in each case. The GI50 in the experiment on PC-3, in the experiment with RXF 393, in the experiment on SF-268, in the experiment on SF-295, in the experiment on SN12C and with SNB-19 was > 100 µM (inactive) each time. For the same compound, the GI50 with SW-620 and in the experiment with U-251 was > 100 µM (inactive) throughout.
For the compound `Nc1ncnc2c1ncn2CC(O)C(=O)O` (stereo not given), the GI50 with 786-0, in the experiment with A498, with COLO 205, in the experiment on EKVX, with HCC 2998 and with MCF7 was > 100 µM (inactive) each time. For the same compound, the GI50 in the experiment on MDA-MB-231, with MOLT-4, in the experiment on NCI-H460, in the experiment with NCI-H522, in the experiment with NCI/ADR-RES and in the experiment with OVCAR-3 was > 100 µM (inactive) in each case. The GI50 in the experiment on PC-3, in the experiment on RXF 393, in the experiment on SF-268, in the experiment with SF-295, with SN12C and in the experiment with SNB-19 was > 100 µM (inactive) throughout. The GI50 in the experiment with SW-620 and in the experiment on U-251 was > 100 µM (inactive) throughout.
Take `Cc1cn(S(=O)(=O)c2ccccc2)c2c(OCc3ccccc3)cc(NS(C)(=O)=O)cc12`: the GI50 in the experiment with 786-0 is 16.4 µM (inactive); in the experiment on A498, 8.15 µM (inactive); in the experiment with COLO 205, 10.3 µM (inactive); with EKVX it was 5.35 µM (inactive); in the experiment on HCC 2998, 24.4 µM (inactive); with MCF7, 6.98 µM (inactive). Also, the GI50 in the experiment on MDA-MB-231 was 9.66 µM (inactive); in the experiment with MOLT-4 it was 3.45 µM (inactive); with NCI-H460 it was 18.5 µM (inactive); in the experiment on NCI-H522, 18.8 µM (inactive); with NCI/ADR-RES it was 14.9 µM (inactive); in the experiment with OVCAR-3, 10.6 µM (inactive). Also, the GI50 in the experiment with PC-3 is 3.92 µM (inactive); with RXF 393 it was 14.6 µM (inactive); in the experiment on SF-268 it was 14 µM (inactive); in the experiment with SF-295, 14.7 µM (inactive); in the experiment with SN12C, 13.7 µM (inactive); with SNB-19 it was 43.3 µM (inactive). The GI50 in the experiment on SW-620 is 17.8 µM (inactive); in the experiment with U-251, 10.6 µM (inactive).
With `NC(=S)NS(=O)(=O)c1ccc(F)cc1F`, the GI50 in the experiment with 786-0, with A498, in the experiment with COLO 205, with EKVX, in the experiment with HCC 2998 and in the experiment with MCF7 was > 100 µM (inactive) in each case. The GI50 in the experiment with MDA-MB-231, with MOLT-4, in the experiment on NCI-H460, in the experiment with NCI-H522, in the experiment with NCI/ADR-RES and with OVCAR-3 was > 100 µM (inactive) throughout. Moreover, the GI50 in the experiment with PC-3, in the experiment with RXF 393, with SF-268, in the experiment on SF-295, in the experiment with SN12C and in the experiment on SNB-19 was > 100 µM (inactive) throughout. The GI50 with SW-620 and in the experiment on U-251 was > 100 µM (inactive) throughout.
As for `Cc1n[nH]c(=O)n1C1CCCC1`, the GI50 in the experiment with 786-0, with A498, with COLO 205, with EKVX, with HCC 2998 and in the experiment with MCF7 was > 100 µM (inactive) in each case. For the same compound, the GI50 with MDA-MB-231, in the experiment with MOLT-4, in the experiment with NCI-H460, in the experiment on NCI-H522, in the experiment with NCI/ADR-RES and with OVCAR-3 was > 100 µM (inactive) in each case. Also, the GI50 in the experiment on PC-3, in the experiment on RXF 393, in the experiment on SF-268, in the experiment on SF-295, in the experiment on SN12C and in the experiment with SNB-19 was > 100 µM (inactive) in each case. For the same compound, the GI50 in the experiment with SW-620 and in the experiment with U-251 was > 100 µM (inactive) in each case.
With `O=c1cc(C(F)(F)F)c2cc3c(cc2o1)NCCC3`, the GI50 in the experiment with 786-0 was 35.2 µM (inactive); in the experiment with A498, > 100 µM (inactive); in the experiment with COLO 205, > 100 µM (inactive); in the experiment with EKVX, 6.4 µM (inactive); in the experiment with HCC 2998, > 100 µM (inactive); in the experiment with MCF7 it was 3.16 µM (inactive). Moreover, the GI50 was > 100 µM (inactive) with MDA-MB-231; > 100 µM (inactive) in the experiment on MOLT-4; > 100 µM (inactive) in the experiment on NCI-H460; 49.5 µM (inactive) with NCI-H522; > 100 µM (inactive) in the experiment with NCI/ADR-RES; > 100 µM (inactive) in the experiment with OVCAR-3. Further, the GI50 in the experiment on PC-3 was 85.3 µM (inactive); in the experiment with RXF 393, < 0.01 µM (active); with SF-268 it was 24.5 µM (inactive); in the experiment on SF-295, 35 µM (inactive); in the experiment on SN12C it was > 100 µM (inactive); in the experiment with SNB-19, 23 µM (inactive). The GI50 in the experiment on SW-620 is > 100 µM (inactive); with U-251, 23.1 µM (inactive).
